{"source": "patent US8101199B2", "about": "“Des-methyl-tocopherol therapy for restenosis prevention” (Celonova Biosciences, Inc., priority 2003, dated 2012)", "origin": "cited, not measured here", "key": {"[1]": {"settings": "relative to d-Alpha-Toc = 100"}, "[2]": {"system": "previously dilated artery segment", "settings": "1200 IU/day orally for 4 months after PTCA"}, "femoral arteries": {"system": "femoral arteries", "settings": "rabbit; three weeks after angioplasty; oral treatment beginning 19 d before angioplasty"}, "native coronary vessels": {"system": "native coronary vessels", "settings": "addition of 200 mg for all subjects during the study"}, "[3]": {"system": "rabbit vascular smooth muscle cells"}, "coronary restenosis": {"system": "coronary restenosis", "settings": "clinical trials"}}, "data": [{"smiles": "Cc1c(C)c2c(c(C)c1O)CCC(C)(CCCC(C)CCCC(C)CCCC(C)C)O2", "note": "(racemic) [dl-Alpha-Tocopherol]", "values": [{"measurement": "Antioxidant Activity (d-Alpha-Toc = 100)", "setting": "[1]", "value": 100}, {"measurement": "overall incidence of restenosis defined by an abnormal angiogram or thallium test or exercise stress test", "setting": "[2]", "value": 34.6, "unit": "%"}, {"measurement": "restenosis (angiographically documented)", "setting": "[2]", "value": 35.5, "unit": "%"}]}, {"smiles": "Cc1c(C)c2c(c(C)c1O)CC[C@@](C)(CCC[C@H](C)CCC[C@H](C)CCCC(C)C)O2", "note": "[d-Alpha-Tocopherol]", "values": [{"measurement": "Antioxidant Activity (d-Alpha-Toc = 100)", "setting": "[1]", "value": 100}]}, {"smiles": "Cc1cc(O)c(C)c2c1O[C@](C)(CCC[C@H](C)CCC[C@H](C)CCCC(C)C)CC2", "note": "[d-Beta-Tocopherol]", "values": [{"measurement": "Antioxidant Activity (d-Alpha-Toc = 100)", "setting": "[1]", "value": 130}]}, {"smiles": "Cc1c(O)cc2c(c1C)OC(C)(CCC(=O)O)CC2", "note": "(stereo not drawn) [gamma-CEHC, 2,7,8-trimethyl-2-(beta-carboxyethyl)-6-hydroxychroman]", "values": [{"measurement": "cyclooxygenase activity inhibition", "setting": "cyclooxygenase", "value": "inhibit cyclooxygenase activity"}]}, {"smiles": "CC(=O)Oc1c(C)c(C)c2c(c1C)CC[C@@](C)(CCC[C@H](C)CCC[C@H](C)CCCC(C)C)O2", "note": "[d-Alpha-Tocopherol acet.]", "values": [{"measurement": "Antioxidant Activity (d-Alpha-Toc = 100)", "setting": "[1]", "value": 0}]}, {"smiles": "Cc1c(C)c2c(c(C)c1O)CC[C@@](C)(CCC[C@H](C)CCC[C@H](C)CCCC(C)C)O2", "note": "[alpha-tocopherol, Alpha-Tocopherol]", "values": [{"measurement": "angiographically determined minimum luminal diameter", "setting": "femoral arteries", "value": "1.38+/−0.29 mm"}, {"measurement": "cross-sectional area of the intima-media", "setting": "femoral arteries", "value": "0.62+/−0.25 mm2"}, {"measurement": "effect on restenosis rates", "setting": "native coronary vessels", "value": "no effect on restenosis rates"}, {"measurement": "DNA synthesis stimulated by oxidized low density lipoprotein", "setting": "[3]", "value": "inhibited DNA synthesis"}]}, {"smiles": "Cc1c(O)cc2c(c1C)O[C@](C)(CCC[C@H](C)CCC[C@H](C)CCCC(C)C)CC2", "note": "[d-Gamma-Tocopherol]", "values": [{"measurement": "Antioxidant Activity (d-Alpha-Toc = 100)", "setting": "[1]", "value": 200}]}, {"smiles": "Cc1c(O)cc2c(c1C)O[C@](C)(CCC[C@H](C)CCC[C@H](C)CCCC(C)C)CC2", "note": "[gamma-tocopherol, Gamma-Tocopherol]", "values": [{"measurement": "cyclooxygenase activity inhibition", "setting": "cyclooxygenase", "value": "inhibit cyclooxygenase activity"}]}, {"smiles": "CC(=O)Oc1c(C)c(C)c2c(c1C)CCC(C)(CCCC(C)CCCC(C)CCCC(C)C)O2", "note": "(racemic) [dl-ALpha-Tocopherol acet.]", "values": [{"measurement": "Antioxidant Activity (d-Alpha-Toc = 100)", "setting": "[1]", "value": 0}]}, {"smiles": "Cc1cc(O)cc2c1O[C@](C)(CCC[C@H](C)CCC[C@H](C)CCCC(C)C)CC2", "note": "[d-Delta-Tocopherol]", "values": [{"measurement": "Antioxidant Activity (d-Alpha-Toc = 100)", "setting": "[1]", "value": "300–500"}]}, {"smiles": "CC(C)(Sc1cc(C(C)(C)C)c(O)c(C(C)(C)C)c1)Sc1cc(C(C)(C)C)c(O)c(C(C)(C)C)c1", "note": "[Probucol]", "values": [{"measurement": "prevention of coronary restenosis after balloon angioplasty", "setting": "coronary restenosis", "value": "shown to prevent coronary restenosis"}]}]}
